Data as given in ChEMBL document CHEMBL1134123, “Potent nonpeptide GnRH receptor antagonists derived from substituted indole-5-carboxamides and -acetamides bearing a pyridine side-chain terminus” (Bioorg Med Chem Lett, 2001).

Experiments:
[1] = target: Gonadotropin-releasing hormone receptor (Homo sapiens) (UniProt P30968); assay: Inhibition of [125I]buserelin binding to human Gonadotropin-releasing hormone receptor.
[2] = target: T1, Gonadotropin-releasing hormone receptor (Homo sapiens, UniProt P30968); assay: Inhibition of GnRH-stimulated phosphatidylinositol (PI) hydrolysis in cloned chinese hamster ovary (CHO) cells expressing human GnRH receptor.; type: functional, cell-based
T1 sequence (P30968 whole entry): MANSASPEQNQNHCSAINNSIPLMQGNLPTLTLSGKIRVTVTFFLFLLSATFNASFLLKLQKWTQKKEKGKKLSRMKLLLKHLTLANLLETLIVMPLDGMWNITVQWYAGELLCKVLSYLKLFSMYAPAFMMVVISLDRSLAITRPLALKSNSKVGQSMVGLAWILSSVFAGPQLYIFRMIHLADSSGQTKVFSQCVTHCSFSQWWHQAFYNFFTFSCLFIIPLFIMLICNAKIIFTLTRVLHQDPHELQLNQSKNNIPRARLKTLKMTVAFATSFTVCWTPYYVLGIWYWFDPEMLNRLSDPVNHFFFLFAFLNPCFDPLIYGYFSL

[3] = target: T1, Gonadotropin-releasing hormone receptor; assay: Inhibition of [125I]buserelin binding to human Gonadotropin-releasing hormone receptor.
[4] = target: T2, Gonadotropin-releasing hormone receptor (Rattus norvegicus, UniProt P30969); assay: Inhibition of GnRH-stimulated luteinizing hormone (LH) release in rat pituitary cells; type: functional, cell-based, Pituitary gland cell
T2 sequence (P30969 whole entry): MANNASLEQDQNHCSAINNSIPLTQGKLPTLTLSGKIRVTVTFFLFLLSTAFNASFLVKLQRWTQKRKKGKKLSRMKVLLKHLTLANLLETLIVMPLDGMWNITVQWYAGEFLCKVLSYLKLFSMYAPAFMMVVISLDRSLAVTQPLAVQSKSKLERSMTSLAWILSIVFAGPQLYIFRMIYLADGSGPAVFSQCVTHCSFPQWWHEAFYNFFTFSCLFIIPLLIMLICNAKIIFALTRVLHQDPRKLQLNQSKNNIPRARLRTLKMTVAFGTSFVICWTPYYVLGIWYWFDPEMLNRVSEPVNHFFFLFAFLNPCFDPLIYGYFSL

[5] = target: T2, Gonadotropin-releasing hormone receptor; assay: Inhibition of [125I]buserelin binding to rat Gonadotropin-releasing hormone receptor.
[6] = target: T2, Gonadotropin-releasing hormone receptor; assay: Compound tested for the inhibition of GnRH-stimulated luteinizing hormone (LH) release in rat pituitary cells; type: functional, cell-based, Pituitary gland cell

Compound	IC50 [1] [nM]	IC50 [2] [nM]	IC50 [3] [nM]	IC50 [4] [nM]	IC50 [5] [nM]	IC50 [6] [nM]
Cc1cc(C)cc(-c2[nH]c3ccc(C(C)(C)C(=O)N4C5CCC4CC5)cc3c2CCN(CCCCc2ccncc2)C(C)C)c1	3.1	200	–	–	–	–
CCN(C(=O)c1ccc2[nH]c(-c3cc(C)cc(C)c3)c(CCNCCCCc3cccnc3)c2c1)C1CCCCC1	–	16	2.3	140	0.2	–
Cc1cc(C)cc(-c2[nH]c3ccc(C(=O)N(CC(C)C)CC(C)C)cc3c2CCNCCCCc2cccnc2)c1	–	120	5	150	0.7	–
Cc1cc(C)cc(-c2[nH]c3ccc(C(=O)N(C)C)cc3c2CCNCCCCc2ccncc2)c1	–	–	–	1460	0.8	–
CCN(C(=O)c1ccc2[nH]c(-c3cc(C)cc(C)c3)c(CCNCCCCc3cccnc3)c2c1)C(C)C	–	110	11	830	–	–
CCN(C(=O)c1ccc2[nH]c(-c3cc(C)cc(C)c3)c(CCNCCCCc3ccncc3)c2c1)C1CCCCCCC1	–	15	1.9	81	–	–
Cc1cc(C)cc(-c2[nH]c3ccc(C4(C(=O)N5C6CCC5CC6)CCC4)cc3c2CCNCCCCc2ccncc2)c1	1.2	170	–	–	–	–
CCN(CC)C(=O)c1ccc2[nH]c(-c3cc(C)cc(C)c3)c(CCN(C)CCCCc3ccncc3)c2c1	–	58	30	430	–	–
CCCCN(CCCC)C(=O)c1ccc2[nH]c(-c3cc(C)cc(C)c3)c(CCNCCCCc3ccncc3)c2c1	–	–	–	240	0.4	–
CCN(CC)C(=O)C(C)(C)c1ccc2[nH]c(-c3cc(C)cc(C)c3)c(CCNCCCCc3cccnc3)c2c1	3.3	94	–	240	–	–
Cc1cc(C)cc(-c2[nH]c3ccc(C(C)(C)C(=O)N4C5CCC4CC5)cc3c2CCN(C)CCCCc2ccncc2)c1	1.5	110	–	71	–	–
Cc1cc(C)cc(-c2[nH]c3ccc(C(=O)N4C(C)CCC4C)cc3c2CCNCCCCc2ccncc2)c1 (stereo not given)	–	–	–	340	0.3	–
Cc1cc(C)cc(-c2[nH]c3ccc(C(C)(C)C(=O)N4CCCC4)cc3c2CCNCCCCc2cccnc2)c1	5	61	–	290	–	–
CCN(CCCCc1ccncc1)CCc1c(-c2cc(C)cc(C)c2)[nH]c2ccc(C(C)(C)C(=O)N3C4CCC3CC4)cc12	2.2	90	–	730	–	–
Cc1cc(C)cc(-c2[nH]c3ccc(C(C)(C)C(=O)N(CC(C)C)CC(C)C)cc3c2CCNCCCCc2cccnc2)c1	1.7	22	–	400	–	–
CCN(CCO)C(=O)c1ccc2[nH]c(-c3cc(C)cc(C)c3)c(CCNCCCCc3ccncc3)c2c1	–	260	36	1000	–	–
CCN(CC)C(=O)c1ccc2[nH]c(-c3cc(C)cc(C)c3)c(CCNCCCCc3ccncc3)c2c1	–	12	18	470	0.5	–
Cc1cc(C)cc(-c2[nH]c3ccc(C(C)(C)C(=O)N(CC(C)C)CC(C)C)cc3c2CCNCCCCc2ccncc2)c1	2.8	8.3	–	140	–	–
CCC(CC)(C(=O)N1C2CCC1CC2)c1ccc2[nH]c(-c3cc(C)cc(C)c3)c(CCNCCCCc3ccncc3)c2c1	1.7	40	–	260	–	–
COCCN(CCOC)C(=O)c1ccc2[nH]c(-c3cc(C)cc(C)c3)c(CCNCCCCc3cccnc3)c2c1	–	610	45	1300	–	–
Cc1cc(C)cc(-c2[nH]c3ccc(C(C)(C)C(=O)N4CCOCC4)cc3c2CCNCCCCc2ccncc2)c1	11	59	–	540	–	–
Cc1cc(C)cc(-c2[nH]c3ccc(C(C)(C)C(=O)N4CCCC4)cc3c2CCNCCCCc2ccncc2)c1	4.8	–	–	–	–	340
Cc1cc(C)cc(-c2[nH]c3ccc(C(C)(C)C(=O)N4C5CCC4CC5)cc3c2CCN(CCCCc2ccncc2)CC(C)C)c1	8.2	300	–	–	–	–
CCC(C)(C(=O)N1C2CCC1CC2)c1ccc2[nH]c(-c3cc(C)cc(C)c3)c(CCNCCCCc3ccncc3)c2c1 (stereo not given)	1	38	–	240	–	–
Cc1cc(C)cc(-c2[nH]c3ccc(C(C)(C)C(=O)N4CCCCC4)cc3c2CCNCCCCc2ccncc2)c1	1.8	38	–	1200	–	–

Compound	IC50 [1] [nM]	IC50 [2] [nM]	IC50 [3] [nM]	IC50 [4] [nM]	IC50 [5] [nM]	IC50 [6] [nM]
CCN(CCO)C(=O)c1ccc2[nH]c(-c3cc(C)cc(C)c3)c(CCNCCCCc3cccnc3)c2c1	–	–	–	1200	0.6	–
Cc1cc(C)cc(-c2[nH]c3ccc(C(=O)N(C)C)cc3c2CCNCCCCc2cccnc2)c1	–	–	–	2600	0.7	–
CCN(CC)C(=O)c1ccc2[nH]c(-c3cc(C)cc(C)c3)c(CCNCCCCc3cccnc3)c2c1	–	190	23	400	0.6	–
Cc1cc(C)cc(-c2[nH]c3ccc(C(C)(C)C(=O)N4CC(C)(C)C4)cc3c2CCNCCCCc2cccnc2)c1	1	62	–	190	–	–
Cc1cc(C)cc(-c2[nH]c3ccc(C(=O)N4CCOCC4)cc3c2CCNCCCCc2cccnc2)c1	–	–	–	1600	0.4	–
Cc1cc(C)cc(-c2[nH]c3ccc(C(=O)NC(C)C)cc3c2CCNCCCCc2cccnc2)c1	–	1200	55	> 1300	–	–
Cc1cc(C)cc(-c2[nH]c3ccc(C(=O)N(CC(C)C)CC(C)C)cc3c2CCNCCCCc2ccncc2)c1	–	80	7.1	380	0.6	–
CCN(C(=O)c1ccc2[nH]c(-c3cc(C)cc(C)c3)c(CCNCCCCc3ccncc3)c2c1)C1CCCCC1	–	22	2.8	130	0.4	–
Cc1cc(C)cc(-c2[nH]c3ccc(C(C)(C)C(=O)N(C)C)cc3c2CCNCCCCc2cccnc2)c1	–	–	–	680	0.5	–
Cc1cc(C)cc(-c2[nH]c3ccc(C(C)(C)C(N)=O)cc3c2CCNCCCCc2cccnc2)c1	–	350	32	–	–	–
Cc1cc(C)cc(-c2[nH]c3ccc(C(C)(C)C(=O)N(C)C)cc3c2CCNCCCCc2ccncc2)c1	–	–	–	930	0.3	–
CCCCN(CCCC)C(=O)c1ccc2[nH]c(-c3cc(C)cc(C)c3)c(CCNCCCCc3cccnc3)c2c1	–	–	–	1000	0.4	–
CCN(CC)C(=O)C(C)(C)c1ccc2[nH]c(-c3cc(C)cc(C)c3)c(CCNCCCCc3ccncc3)c2c1	3.2	58	–	210	–	–
Cc1cc(C)cc(-c2[nH]c3ccc(C(C)(C)C(=O)N4C5CCC4CC5)cc3c2CCNCCCCc2ccncc2)c1	1.4	18	–	71	–	–
Cc1cc(C)cc(-c2[nH]c3ccc(C(C)(C)C(=O)N4C5CCC4CC5)cc3c2CCNCCCCc2cccnc2)c1	1.4	14	–	73	–	–
Cc1cc(C)cc(-c2[nH]c3ccc(C(=O)N(CC(F)(F)F)CC(F)(F)F)cc3c2CCNCCCCc2ccncc2)c1	–	91	36	3600	0.6	–
CCN(C(=O)C(C)(C)c1ccc2[nH]c(-c3cc(C)cc(C)c3)c(CCNCCCCc3ccncc3)c2c1)C1CCCCC1	2.3	54	–	960	–	–
Cc1cc(C)cc(-c2[nH]c3ccc(C(=O)N(C(C)C)C(C)C)cc3c2CCNCCCCc2ccncc2)c1	–	–	–	400	0.3	–
Cc1cc(C)cc(-c2[nH]c3ccc(C(=O)N4CCCC4)cc3c2CCNCCCCc2ccncc2)c1	–	–	–	> 1300	0.5	–
Cc1cc(C)cc(-c2[nH]c3ccc(C(=O)N4C(C)CCC4C)cc3c2CCNCCCCc2cccnc2)c1 (stereo not given)	–	62	3.6	360	–	–
Cc1cc(C)cc(-c2[nH]c3ccc(C(=O)N4CCOCC4)cc3c2CCNCCCCc2ccncc2)c1	–	–	–	1400	0.3	–
Cc1cc(C)cc(-c2[nH]c3ccc(C(=O)N4CCCC4)cc3c2CCNCCCCc2cccnc2)c1	–	–	–	5100	0.6	–
Cc1cc(C)cc(-c2[nH]c3ccc(C(=O)N4C5CCC4CC5)cc3c2CCNCCCCc2ccncc2)c1	–	260	32	–	–	–
Cc1cc(C)cc(-c2[nH]c3ccc(C(C)(C)C(=O)N4C(C)CCC4C)cc3c2CCNCCCCc2ccncc2)c1 (stereo not given)	2.8	15	–	160	–	–
